The source of these data is publication PMC7962536, “Isolation, Characterization, and Medicinal Potential of Polysaccharides of Morchella esculenta” (Molecules, 2021).

This experiment addresses T1, tyrosinase enzyme from mushrooms.
T1 construct: gene PPO1; native mushroom tyrosinase preparation
The experiment is described as follows: spectrophotometric L-DOPA oxidation, […] nm. In kind it is biochemical. The note with it: L-DOPA as substrate, sodium phosphate buffer pH 6.8, 37 °C, 10 min preincubation; unreliable: extrapolated below the lowest listed concentration 12.5 µg/mL.

≈ marks a conversion by molar mass, not a printed value.

`O=c1cc(CO)occ1O` [kojic acid]: the IC50 is recorded as 8.25 ± 0.36 µg/mL (≈ 58.1 µM).

The IC50 is the point on the concentration scale where inhibition reaches its midpoint.
